In data set [1] the test system is H1299 cells. Kind of data set: MTT cell killing assay, H1299. The settings on record: Homo sapiens, NCI-H1299, H1299, 2 hours exposure, then 48 hours growth, read-out: calculated IC50. Type of data set: cell-based. The method, then:
(§1) H1299 and SPCA1 cells were plated at the density of 10^4 cells/well in 96-well plates and grown overnight. […] The cells were then washed with fresh medium, and let grown for another 48 hours. The cell viabilities after different treatments were determined using a MTT assay (26).

Data set [2] relates to SPCA1 cells. Kind of data set: MTT cell killing assay, SPCA1. Type of data set: cell-based. As to conditions: Homo sapiens, SPCA1, 2 hours exposure, then 48 hours growth, read-out: calculated IC50. The method, then:
as §1

Data set [3] deals with H-460 cells. The data set is described as follows: FACS analysis of liposome binding by doxorubicin fluorescence. Type of data set: cell-based. As to conditions: 0.01 to 10 μg/ml doxorubicin, FIG. 8. The method, then:
H-460 cells were grown in cell culture plate under sterile conditions and harvested by scraping. The liposome samples (empty Thermodox liposome, ThermoDox, D4-ThermoDox, D4*-ThermoDox where D4 ThermoDox comprises SEQ ID NO:1 and D4*ThermoDox comprises SEQ ID NO:2) and doxorubicin hydrochloride were added and incubated at 37° C. with H-460 cells for 4 hours. Two different liposomes comprising different amounts of the peptide of the invention (D4-ThermoDox) were tested. The two liposomes were designated D4-ThermoDox2+2, which comprised DPPC:MSPC: DSPE-MPEG2000:D4-DSPE-MPEG2000 in a 90:10:2:2 molar ratio and D4-ThermoDox4+4, which comprised DPPC:MSPC: DSPE-MPEG2000:D4-DSPE-MPEG2000 in a 90:10:4:4 molar ratio. The D4*-ThermoDox comprised DPPC:MSPC: DSPE-MPEG2000:D4*-DSPE-MPEG2000 in a 90:10:2:2 molar ratio. After incubation, the cells were washed 4 times with PBS, and counted by FACS using doxorubicin fluorescence (excitation at 488 nm, and emission at 575 nm).
The following groups were examined: a. Non-treatment control; b. ThermoDox at approx. 0.01-10 μg (doxorubicin)/mL; c. D4-ThermoDox2+2 at approx. 0.01-10 μg (doxorubicin)/mL; d. D4-ThermoDox4+4 at approx. 0.01-10 μg (doxorubicin)/mL; e. D4*-ThermoDox at approx. 0.01-10 μg (doxorubicin)/mL; and f. doxorubicin hydrochloride 0.01-10 μg. […]
On the technique in general: Flow cytometry measures light scatter and fluorescence of single cells or particles in a stream.

For data set [4], the system named is H1299 tumor bearing mice. The data set is described as follows: In vivo fluorescence imaging of Cy5.5 labeled peptides. The settings on record: tail vein injection, 1 to 6 hours after injection. The method, then: Both H1299 and SPCA1 xenograft mouse models were prepared by the animal experimental center of Shanghai Cancer Institute. They were used in the in vivo imaging experiments about 3˜4 weeks after tumor cell inoculation (tumor size about 5-7 mm diameter), and humanely sacrificed afterwards. The animal study protocols were approved by the Animal Study Committee of Shanghai Jiaotong University, School of Pharmacy.
At various time points afterwards, the mice were anesthetized and imaged with an Optix in vivo fluorescence imaging system (GE Healthcare). Excepted for the Cy5.5 dye only control, all the other groups contained at least 3 mice. The representative images from the same most representative mouse in each group were shown. The images had been processed using the fluorescence lifetime gating for Cy5.5 (0.8-1.1 ns) to remove most autofluorescent interferences.
Cy5.5 fluorescence distributions inside the mice were imaged at various time points after injection. In all groups including the free dye control, fluorescences were first seen all over the body, and then quickly afterwards in the kidney and bladder. […] But in LARLLT-Cy5.5 injected mice, between 1 to 6 hours after injection, fluorescence signals in the tumor tissue were much stronger, as compared to the surrounding tissues.

Data set [5] addresses epidermal growth factor receptor (EGFR) on EGFR high-expressing human lung cancer cells (H1299, SPCA1) (human, UniProt P00533 25-1210). Kind of data set: cell-based or functional assay.

Converted amounts (≈) assume the structure as drawn.

Broadly, the IC50 is the midpoint of a concentration-inhibition curve. Take `COc1cccc2c1C(=O)c1c(O)c3c(c(O)c1C2=O)C[C@@](O)(C(=O)CO)C[C@@H]3O[C@H]1C[C@H](N)[C@H](O)[C@H](C)O1` [free doxorubicin, doxorubicin]: the IC50 in data set [1] was 5.7 µg/mL (≈ 10.5 µM); in data set [2], 2 µg/mL (≈ 3.68 µM). The “doxorubicin uptake (mean fluorescence intensity)” value in data set [3] was “highest”.
Take Cy5.5: in data set [4], the “fluorescence signal in the tumor region” value is on record as “the same as background”.

B1: control peptide modified liposomes (scrambled peptide RTALLL conjugated to DSPE-PEG2000, inserted into preformed liposomes) (peptide)
peptide: RTALLL
modifications: peptide thiolated with SPDP, reduced with TCEP and coupled to the maleimide of DSPE-PEG2000-Mal; the lipid conjugate is inserted into liposomes
On to B1, for which, in data set [5], the “IC50 of cell killing (MTT), doxorubicin liposomes, H1299 cells” value was 85 µg/mL and the “IC50 of cell killing (MTT), doxorubicin liposomes, SPCA1 cells” value is 15 µg/mL.

(Values after US20110200527A1, “Peptide Ligand Directed Drug Delivery” (Shanghai Jiaotong University, priority 2007, published 2011).)
